# Laboratory results published in patent US11638744B2, “Immunity enhancing agent for cancer by Allergin-1 antagonist” (ONO PHARMACEUTICAL CO., LTD., priority 2015, dated 2023).
# Legend:
# [1] = test system: intraperitoneal macrophages (CD11b+F4/80+ cells); assay: Production of IFNβ after cGAMP stimulation of intraperitoneal macrophages; type: cell-based, mouse; conditions: macrophages derived from Alg1-KO mice versus WT; 3, 10 or 30 μM; 24 and 48 hours
# Method: To C57BL/6N mice and Alg1-KO mice, a 3% thioglycolate medium was intraperitoneally administered at 1 mL/body. After 3 days, 5 mL of 5 mM EDTA/PBS was injected for intraperitoneal lavage and the drain was collected. After haemolysis treatment, the proportion of CD11b^+F4/80^+ cells among intraperitoneal invasive cells was calculated on a flow cytometer.
# The cells were seeded in a 96-well plate so that the CD11b^+F4/80^+ cells are 2×10^5 cells/well, the culture supernatant was discarded after 1 hour, the cells were washed once with the medium and the medium containing 3, 10 or 30 μM cyclic GMP-AMP (cGAMP), respectively was added. The culture supernatant was collected after 24 and 48 hours and the amount of IFN-β in the culture supernatants was measured.
# TLR7 = assay: Production of type I IFN after administration of polyuridine (serum ELISA); type: in vivo; conditions: Alg1-KO mice versus WT; 50 μg/mouse i.v. with DOTAP; 2 and 6 hours after administration
# Method: To C57BL/6 mice (WT mice) and Alg1-KO mice, polyuridine was intravenously administered together with a liposome transfection reagent, DOTAP. The dosage was 50 μg/mouse. Serum IFNα and IFNβ were measured by ELISA at 2 and 6 hours after administration.
Substance,production of IFNβ (culture supernatant) [1],production of IFNα (serum) (TLR7),production of IFNβ (serum) (TLR7)
cyclic GMP-AMP [cGAMP],increased compared to WT,–,–
polyuridine,–,increased compared to WT,increased compared to WT
